These results are taken from article PMC3303165 (Dalton Transactions (Cambridge, England : 2003), 2012).

A value given as a limit tells only on which side of the number the result lay.

In series [1] the test system is Plasmodium falciparum D10 (chloroquine sensitive strain). Type of series: cell-based. The settings on record: D10, read-out: D10: IC50.
Series [2] has as its system Plasmodium falciparum Dd2 (chloroquine resistant strain). Type of series: cell-based. The following applies: DD2, read-out: Dd2: IC50.
The conditions of series [3]: cited from earlier work.
In another series the test system is heme aggregation. The following applies: acetate buffer (pH=4.9)/n-octanol interface; cited from earlier work.

Take `CCN(CC)CCCC(C)Nc1ccnc2cc(Cl)ccc12` (stereo not shown) [CQ, chloroquine]: the IC50 – broadly, the point on the concentration scale where inhibition reaches its midpoint – in series [1] came out at 25 ± 9 nM; in series [2] it was 143 ± 14 nM. In addition, the “D(pH=4.9) water/n-octanol distribution coefficient” value in series [3] (pH 4.9) is 0.15 ± 0.01. Also, the “D(pH=6.6) water/n-octanol distribution coefficient” value in series [3] (pH 6.6) is given as 6.61 ± 0.64. Further, the “HAIR50 (drug to hemin ratio required to inhibit 50% of heme aggregation)” value in the series on heme aggregation is 2.92.
`Clc1ccc2c(NCCNCc3ccccn3)ccnc2c1` [L^1, N-(2-((pyridin-2-yl)methylamino)ethyl)-7-chloroquinolin-4-amine]: the IC50 in series [1] was found to be 30 ± 2 nM; in series [2] it was 220 ± 30 nM.
For `Cn1ccnc1CNCCNc1ccnc2cc(Cl)ccc12` [L^2, N-(2-((1-methyl-1H-imidazol-2-yl)methylamino)ethyl)-7-chloroquinolin-4-amine], in that order: 190 ± 30 nM and 250 ± 60 nM.
For `Oc1ccccc1CN=CCNc1ccnc2cc(Cl)ccc12` [L^3, N-(2-((2-hydroxyphenyl)methylimino)ethyl)-7-chloroquinolin-4-amine], in that order: 550 ± 300 nM and greater than 30000 nM.
For `Clc1ccc2c(NCCN(Cc3ccccn3)Cc3ccccn3)ccnc2c1` [L^4, N-(2-(bis((pyridin-2-yl)methyl)amino)ethyl)-7-chloroquinolin-4-amine], in that order: 1300 ± 100 nM and 1300 ± 100 nM.
